Experimental data published in the NIST ThermoML archive (doi:10.1016/j.jct.2017.03.006).

Key:
[1] = 100 kPa, Liquid, Concentric cylinders viscometry
[2] = xn = mol fraction of the nth substance listed; conditions: Liquid, x1 = 1; for mass density: Vibrating tube method; for viscosity: Concentric cylinders viscometry

CCCCO [butan-1-ol]
[1]
Conditions | viscosity [mPa·s]
323.15 K | 1.406
333.15 K | 1.134

CCCCO [butan-1-ol] + Cc1ccc(C)c(C)c1
[2]
Conditions | mass density [kg/m3] | viscosity [mPa·s]
273.15 K, 100 kPa | 824.6 | –
273.15 K, 1000 kPa | 825.2 | –
273.15 K, 5000 kPa | 827.7 | –
273.15 K, 10000 kPa | 830.8 | –
273.15 K, 20000 kPa | 836.7 | –
273.15 K, 30000 kPa | 842.3 | –
273.15 K, 40000 kPa | 847.6 | –
273.15 K, 50000 kPa | 852.5 | –
273.15 K, 60000 kPa | 857.2 | –
273.15 K, 70000 kPa | 861.7 | –
273.15 K, 80000 kPa | 866 | –
273.15 K, 90000 kPa | 870.1 | –
273.15 K, 100000 kPa | 874 | –
273.15 K, 120000 kPa | 881.5 | –
273.15 K, 140000 kPa | 888.5 | –
293.15 K, 100 kPa | 809.6 | 2.953
293.15 K, 1000 kPa | 810.2 | –
293.15 K, 5000 kPa | 813.1 | –
293.15 K, 10000 kPa | 816.5 | –
293.15 K, 20000 kPa | 822.9 | –
293.15 K, 30000 kPa | 829 | –
293.15 K, 40000 kPa | 834.7 | –
293.15 K, 50000 kPa | 840 | –
293.15 K, 60000 kPa | 845 | –
293.15 K, 70000 kPa | 849.8 | –
293.15 K, 80000 kPa | 854.4 | –
293.15 K, 90000 kPa | 858.7 | –
293.15 K, 100000 kPa | 862.9 | –
293.15 K, 120000 kPa | 870.8 | –
293.15 K, 140000 kPa | 878.2 | –
303.15 K, 100 kPa | – | 2.263
313.15 K, 100 kPa | 794.1 | 1.769
313.15 K, 1000 kPa | 794.8 | –
313.15 K, 5000 kPa | 798 | –
313.15 K, 10000 kPa | 801.8 | –
313.15 K, 20000 kPa | 808.9 | –
313.15 K, 30000 kPa | 815.5 | –
313.15 K, 40000 kPa | 821.6 | –
313.15 K, 50000 kPa | 827.4 | –
313.15 K, 60000 kPa | 832.7 | –
313.15 K, 70000 kPa | 837.8 | –
313.15 K, 80000 kPa | 842.7 | –
313.15 K, 90000 kPa | 847.3 | –
313.15 K, 100000 kPa | 851.7 | –
313.15 K, 120000 kPa | 860 | –
313.15 K, 140000 kPa | 867.8 | –
323.15 K, 100 kPa | – | 1.406
333.15 K, 100 kPa | 778 | 1.134
333.15 K, 1000 kPa | 778.8 | –
333.15 K, 5000 kPa | 782.4 | –
333.15 K, 10000 kPa | 786.5 | –
333.15 K, 20000 kPa | 794.4 | –
333.15 K, 30000 kPa | 801.6 | –
333.15 K, 40000 kPa | 808.2 | –
333.15 K, 50000 kPa | 814.4 | –
333.15 K, 60000 kPa | 820.1 | –
333.15 K, 70000 kPa | 825.6 | –
333.15 K, 80000 kPa | 830.7 | –
333.15 K, 90000 kPa | 835.6 | –
333.15 K, 100000 kPa | 840.3 | –
333.15 K, 120000 kPa | 849 | –
333.15 K, 140000 kPa | 857.1 | –
